Patent US4146719A, “Piperazinyl derivatives of quinoline carboxylic acids” (priority 1977, dated 1979)
In brackets after ≈: the same amount, converted by molar mass. Like-named read-outs stand apart in the source and are kept apart here.

How the values were obtained:
[1] = tested on: gram-positive and gram-negative bacteria including Pseudomonas aeruginosa; assay: Antibacterial spectrum in vitro (summary in words); assay type: cell-based
Escherichia coli NIHJ = assay: Antibacterial activity in vitro, M.I.C., agar dilution streak method; assay type: cell-based; settings: Escherichia coli
[2] = tested on: Mycobacterium phlei IFO 3142; assay: as above; assay type: cell-based; settings: Mycolicibacterium phlei, IFO3142
[3] = tested on: Escherichia coli NIHJ JC-2; assay: Influence of rat bile on antibacterial activity; assay type: cell-based; settings: bile of rats
Protocol: Nutrient agar was heated and melted. […] The diameter of the inhibition zone was measured.

[4] = Biliary excretion in rats after a single oral administration of 50 mg/kg; settings: in vivo, rat, 50 mg/kg oral
[5] = tested on: Escherichia coli NIHJ JC-2; assay: Preventive effect against ascending kidney infection in mice with Escherichia coli; assay type: in vivo, Escherichia coli; mice (ddY, female); settings: Escherichia coli
Protocol: Ascending kidney infection was induced in female mice (strain: ddY, 6 weeks old, body weight: 22-26g), by instilling Escherlichia coli NIHJ JC-2 suspended in 0.04 ml of Tryptosoya broth (Nissan) into the urinary tract of mice anesthetized with sodium pentobarbital and by holding for 6 hours the mice in plastic tubes (diameter 25 mm) and clamping the outlet of urinary tract.
Each of these test material was orally administered 3 hours after inoculation. Mice were sacrificed 48 hours after inoculation. Kidneys were removed aseptically and bisected, and the two halves were pressed and streaked on agar plate containing Desoxycholate medium (Nissan). The therapeutic effect of each compound was evaluated from the absence of growth on the agar surface after 20 hours of incubation at 37° C.

Ps. aeruginosa IID 1210 = assay: Antibacterial activity in vitro, M.I.C., agar dilution streak method; assay type: cell-based, Pseudomonas aeruginosa; settings: Pseudomonas aeruginosa, IID1210
Sta. aureus ATCC 14775 = assay: as above; assay type: cell-based, Staphylococcus aureus; settings: Staphylococcus aureus, ATCC14775
My. smegmatis IFO 3083 = assay: as above; assay type: cell-based; settings: Mycolicibacterium smegmatis, IFO3083
[6] = tested on: Neisseria perflava IID 856; assay: as above; assay type: cell-based; settings: Neisseria perflava, IID856
[7] = tested on: Proteus vulgaris IFO 3167; assay: as above; assay type: cell-based; settings: Proteus vulgaris, IFO3167
[8] = Chem. Abstr., 62, 15600h (1965); cited from earlier work
Str. pyogenes S-8 = assay: Antibacterial activity in vitro, M.I.C., agar dilution streak method; assay type: cell-based, Streptococcus pyogenes; settings: Streptococcus pyogenes, S8
[9] = tested on: Pseudomonas aeruginosa V-1; assay: as above; assay type: cell-based; settings: Pseudomonas aeruginosa, V1
[10] = tested on: Staphylococcus aureus 209P; assay: as above; assay type: cell-based; settings: Staphylococcus aureus, 209P
[11] = tested on: Streptococcus pyogenes IID 692; assay: as above; assay type: cell-based; settings: Streptococcus pyogenes, IID692
[12] = Chelate formation with ferric ion; assay type: physicochemical; settings: one third molar equivalent of ferric chloride hexahydrate, water
From the text: It is known that most of drugs such as Quinoform and Ethambutol which form chelates with metal ions in vivo produce undesirable side effects.

[13] = tested on: Klebsiella pneumoniae IFO 3512; assay: Antibacterial activity in vitro, M.I.C., agar dilution streak method; assay type: cell-based; settings: Klebsiella pneumoniae, IFO3512
E. coli ATCC 10536 = assay: as above; assay type: cell-based, Escherichia coli; settings: Escherichia coli, ATCC10536
Ps. aeruginosa IID 1130 = assay: as above; assay type: cell-based, Pseudomonas aeruginosa; settings: Pseudomonas aeruginosa, IID1130
[14] = tested on: Haemophilus influenzae IID 986; assay: as above; assay type: cell-based; settings: Haemophilus influenzae, IID986
[15] = tested on: Salmonella enteritidis IID 604; assay: as above; assay type: cell-based; settings: Salmonella enterica
[16] = tested on: Bacillus subtilis PCI 219; assay: as above; assay type: cell-based; settings: Bacillus subtilis, PCI219
[17] = tested on: Diplococcus pneumoniae IID 552; assay: as above; assay type: cell-based; settings: Streptococcus pneumoniae, IID552
Shigella sonnei IID 969 = assay: as above; assay type: cell-based; settings: Shigella sonnei, IID969; Gram -
Escherichia coli = assay: Concentration ratio in serum to M.I.C. after oral administration of 50 mg/kg in rats; assay type: in vivo, Escherichia coli; rats; settings: rat, 50 mg/kg oral
Pr. vulgaris XK Denken = assay: Antibacterial activity in vitro, M.I.C., agar dilution streak method; assay type: cell-based, Proteus vulgaris; settings: Proteus vulgaris
Ps. aeruginosa IFO 12689 = assay: as above; assay type: cell-based, Pseudomonas aeruginosa; settings: Pseudomonas aeruginosa, IFO12689

In the case of `CCn1cc(C(=O)O)c(=O)c2ccc(C)nc21` [Nalidixic acid], the “antibacterial activity (in words)” value [1] is reported as “inactive on many strains of gram-positive bacteria and many Pseudomonas aeruginosa strains”, the MIC (Escherichia coli NIHJ) is reported as 3.13 µg/mL (≈ 13.5 µM) and the MIC [2] is reported as 100 µg/mL (≈ 431 µM). For the same compound, the “antibacterial activity in presence of bile (in words)” value [3] was “not influenced by bile of rats”, the dose excreted at 3 h ([4]; 0-3 hours, mean ±S.E., read-out: Biliary excretion, cumulative recovery) was 0.29 ± 0.03% and the concentration at 3 h ([4]; 0-3 hrs., mean±S.E., read-out: Biliary level) was 14700 ± 1500 ng/mL. For the same compound, the dose excreted at 6 h ([4]; 0-6 hours, mean ±S.E., read-out: Biliary excretion, cumulative recovery) was 0.56 ± 0.05%, the dose excreted at 24 h ([4]; 0-24 hours, mean ±S.E., read-out: Biliary excretion, cumulative recovery) was 1.33 ± 0.1% and the dose excreted at 27 h ([4]; 0-27 hours, mean ±S.E., read-out: Biliary excretion, cumulative recovery) was 1.33 ± 0.1%. The concentration at 6 h ([4]; 3-6 hrs., mean±S.E., read-out: Biliary level) was 16600 ± 2400 ng/mL, the concentration at 24 h ([4]; 6-24 hrs., mean±S.E., read-out: Biliary level) was 9300 ± 1600 ng/mL and the concentration at 27 h ([4]; 24-27 hrs., read-out: Biliary level (not detected symbol)) was < 2000 ng/mL. The ED90 ([5]; NIHJJC2, 48 h) was 345 mg/kg, the ED50 ([5]; NIHJJC2, po, 48 h, read-out: ED50 (95% confidence limit)) was 86 mg/kg and the MIC (Ps. aeruginosa IID 1210) was > 200 µg/mL. The MIC (Sta. aureus ATCC 14775) was > 100 µg/mL, the MIC (My. smegmatis IFO 3083) was > 100 µg/mL and the MIC [6] was 1.56 µg/mL (≈ 6.72 µM). For the same compound, the MIC [7] was 3.13 µg/mL (≈ 13.5 µM), the “chelate compound with ferric ion” value [8] was “afforded chelate compound when treated with ferric ion” and the MIC (Str. pyogenes S-8) was > 100 µg/mL. For the same compound, the MIC [9] was 100 µg/mL (≈ 431 µM), the MIC [10] was 100 µg/mL (≈ 431 µM) and the MIC [11] was > 100 µg/mL. For the same compound, the “shift of absorption maxima on treatment with ferric ion” value ([12]; from 256 and 326 nm, NaOH) was “shifted to shorter wave length at 248 and 311 nm”, the “chelate compound with ferric ion” value ([12]; molar equivalent of sodium hydroxide) was 3:1 chelate compound of nalidixic acid and ferric ion was obtained and the MIC [13] was 1.56 µg/mL (≈ 6.72 µM). For the same compound, the MIC (E. coli ATCC 10536) was 3.13 µg/mL (≈ 13.5 µM), the MIC (Ps. aeruginosa IID 1130) was > 200 µg/mL and the MIC [14] was 1.56 µg/mL (≈ 6.72 µM). The MIC [15] was 12.5 µg/mL (≈ 53.8 µM), the MIC [16] was 6.25 µg/mL (≈ 26.9 µM) and the MIC [17] was > 100 µg/mL. For the same compound, the MIC (Shigella sonnei IID 969) was 1.56 µg/mL (≈ 6.72 µM), the “serum concentration / M.I.C. ratio (in words)” value (Escherichia coli) was “smaller than that of the compound (II)” and the MIC (Pr. vulgaris XK Denken) was 3.13 µg/mL (≈ 13.5 µM). The MIC (Ps. aeruginosa IFO 12689) was > 200 µg/mL.
